“Also recorded” adds a separate entry of the source.
Columns and labels:
[1] = Affinity to Zn^2+ ions (log K); format: physicochemical
[2] = IV administration to mice, detection in blood by HPLC; format: in vivo
human chondrocyte cells = test: NTMP hydrolysis in human chondrocyte cells; format: cell-based; conditions: 0.1 mM, NTMP 0.1 mM, OD 405 nm
Procedure: (§1) Increased chondrocyte PPi production, and PPi-generating NPP1 activity are linked with CPPD crystal deposition disease, common in aging and osteoarthritic cartilage. […] Its hydrolysis by endogenous enzyme (NPP1) from matrix vesicles (MVs), human chondrocytes or cartilage pieces results in elevated OD at 405 nm.
In order to test the ability of the NPP1 inhibitor to inhibit NTMP hydrolysis in human chondrocyte cells, human chondrocytes 1.5×10^4 per well were seeded in 96 well plate in 100 μl DMEM/10% fetal calf serum (FCS). One day before the experiment, the medium was changed to DMEM only (w/o phenol red). Human chondrocytes were incubated with 0.1 mM NTMP in TES, pH 7.37, in the presence or absence of 0.1 mM of the NPP1 inhibitor for 0, 15′, 30′, 1, 2, 4, 6, 18 hours at 37° C. At each time point the reaction was read at 405 nm.

matrix vesicles (MVs) = test: CPPD formation in MVs by FTIR analysis; parameters: species or system human; conditions: MV+ATP+analogue
cartilage pieces = test: NTMP hydrolysis in cartilage pieces; parameters: species or system human; conditions: 0.1 mM, NTMP 0.1 mM, OD 405 nm
Excerpt: as §1
In order to test the ability of the NPP1 inhibitor to inhibit NTMP hydrolysis in cartilage pieces, 12 pieces of cartilage of a uniform diameter were weighed and placed in wells of a 96-well plate overnight in DMEM w/o phenol red with penicillin-streptomycin-glutamine (PSG). The pieces of cartilage were incubated with 0.1 mM NTMP in TES, pH 7.37, in the presence or absence of 0.1 mM of the NPP1 inhibitor for 0, 15′, 30′, 1, 2, 4, 6, 8 hours at 37° C. At each time point 200 μl were removed from each well and the reaction was read at 405 nm.

Aβ28-Cu^+ complex = target: T1, Aβ28-Cu^+ complex (Homo sapiens, UniProt P05067); test: Titration of Aβ28-Cu^+ complex by chelators monitored by 1H-NMR; conditions: 0.8 mM Aβ28-Cu^+, pD 7
T1 construct: we first studied Aβ28, as a more soluble fragment of Aβ40; purchased Sigma-Aldrich
T1 sequence (P05067 672-699 limits assumed, one chain of several): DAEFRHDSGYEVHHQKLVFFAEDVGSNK

Aβ40-Cu^+ complex = target: T2, Aβ40-Cu^+ complex (Homo sapiens, UniProt P05067); test: Re-solubilization of Aβ40-Cu^+ aggregates monitored by 1H-NMR; conditions: 6 eq, pD 7.8
T2 construct: purchased GL-Biochem (Shanghai)
T2 sequence (P05067 672-711, one chain of several): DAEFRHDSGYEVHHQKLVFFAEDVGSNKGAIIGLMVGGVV
Procedure: ^1H-NMR spectrum of 0.25 mM Aβ40 (concentration determined by UV) in 10 mM TRIS-d11 (500 μl, pD 11) was measured at 278 K. The pD was adjusted to 7.8 by the addition of 0.1 N DCl (33 μl), and ^1H-NMR spectrum was measured (700 MHz, 80 scans), as well as after each of the following additions: (A) 8.3 mM Cu^+ (15 μl, 1 eq); (B) 6 mM compound 7 (21 μl, 1 eq); (C) 6 mM compound 7 (42 μL, 3 eq); (D) of 6 mM APCPP-γ-S (62.4 μl, 6 eq); (E) of 6 mM APCPP-γ-S (62.4 μl, 9 eq). At the end of the titration, the acetonitrile concentration was 2% (v/v) in 735.8 μl, pD 8.4.
APCPP-γ-S, the most promising chelator identified here, was used also to resolubilize Aβ40-Cu^+ aggregates. This process was monitored by ^1H-NMR similar to that described above for Aβ28. First, the ^1H-NMR spectrum of 0.25 mM Aβ40 monomer at 278 K, pD 11, was measured (FIG. 7a), after adjustment of Aβ40 solution pD to 7.8 the signals shifted and broadened (FIG. 7b). Upon addition of 1 eq 8.3 mM Cu(CH3CN)4PF6 the signals dramatically further broadened (FIG. 7c).

[3] = Pharmacokinetics and BBB permeation after IV injection in mice; format: in vivo, F1 (C57B×S29) mice
Procedure: As shown in Example 14, APCPP-γ-S is stable in human blood serum as well as in brain, liver and blood from mice. In this study, we evaluated APCPP-γ-S blood-brain barrier (BBB) permeability and pharmacokinetics in F1 (C57B×S29) mice. APCPP-γ-S was injected intravenously (IV) at 40 mg/Kg into four mice (each mouse was injected with 1.5 mg of APCPP-γ-S). The mice were sacrificed after 30 minutes (2 of the 4) or 90 minutes (thr other 2 of the 4), and samples from brain and blood were taken to analysis. Each sample was collected into 0.5 ml saline, sonicated and extracted with chloroform, applied onto an anion exchange cartridge, and freeze-dried. The resulting residue was analyzed by HPLC. We detected the presence of 67.5 and 64% of the injected amount of APCPP-γ-S in the blood samples after 30 and 90 minutes, respectively. In the brain sample we obtained ca. 2% permeability (data not shown).

[4] = Stability in human blood serum; format: in vitro ADME
[5] = Metabolic stability in mouse brain, liver and blood homogenates (HPLC); format: in vitro ADME, mice; conditions: 37° C., up to 180 min
Procedure: In order to use APCPP-γ-S as a neuroprotectant agent and test its activity in an animal model, we first evaluated the metabolic stability of APCPP-γ-S in several tissues such as liver, brain and blood. In this assay we took samples from mice brain, liver and blood. The tissue samples were homogenated by sonication and split to 0.5 ml aliquots. Each sample was mixed with 0.1 mg of APCPP-γ-S and incubated at 37° C. for 10, 30, 90 and 180 min. After incubation, the samples were collected and extracted with chloroform at 1:1 v/v ratio. The aqueous layer was removed and freeze-dried. Samples were loaded onto an activated Starta X-AW weak anion exchange cartridge, washed with H2O (1 ml) and eluted with MeOH:H2O (1:1, 1 ml) followed by NH4OH:MeOH:H2O (2:25:73, 1 ml), and then freeze-dried. The resulting residue was analyzed by HPLC. […] Each analysis cycle was set to 30 minutes. The chromatographic flow was monitored at 260 nm and integrated using EZChrom Elite Software.

Nc1ncnc2c1ncn2[C@@H]1O[C@H](COP(O)(=S)OP(=O)(O)C(Cl)(Cl)P(=O)(O)O)[C@@H](O)[C@H]1O (single isomer, unassigned) [APPCCl2P-α-S, adenosine 5′-[Pα-thio]-β,γ-(dichloromethylene)triphosphate]
log K (Zn^2+) [1]: 6.5 | times higher affinity to Zn^2+ ions as compared to ATP [1]: 50 | detection in blood after IV administration [2]: could be detected in blood (by HPLC) even after 3 h

Nc1ncnc2c1ncn2[C@@H]1O[C@H](COP(O)(=S)OP(=O)(O)C(Cl)(Cl)P(=O)(O)O)[C@@H](O)[C@H]1O (single isomer, unassigned; isomer a) [APPCCl2P-α-S (isomer A), adenosine 5′-[Pα-thio]-β,γ-(dichloromethylene)triphosphate]
inhibition of NTMP hydrolysis in human chondrocyte cells (human chondrocyte cells): inhibit the hydrolysis of NTMP | CPPD production in MVs (FTIR bands 920 and 1125 cm^−1) (matrix vesicles (MVs)): a decrease in production of CPPD | inhibition of NTMP hydrolysis in cartilage pieces (cartilage pieces): inhibit the hydrolysis of NTMP

Nc1ncnc2c1ncn2[C@@H]1O[C@H](COP(=O)(O)OP(O)(O)=S)[C@@H](O)[C@H]1O [ADP-β-S, adenosine 5′-[β-thio]diphosphate, reference compound]
equivalents at which the spectrum resembled that of pure Aβ28 (Aβ28-Cu^+ complex): 5 eq

Nc1ncnc2c1ncn2[C@@H]1O[C@H](COP(=O)(O)CP(=O)(O)OP(O)(O)=S)[C@@H](O)[C@H]1O [APCPP-γ-S, adenosine 5′-[Pγ-thio]-α,β-methylenetriphosphate]
effect on Aβ40-Cu^+ 1H-NMR spectrum (Aβ40-Cu^+ complex): all signals reappeared | injected amount present in blood ([3]; IV 40 mg/Kg, after 30 minutes): 67.5% | permeability into brain ([3]; IV 40 mg/Kg, brain sample): ca. 2% | injected amount present in blood ([3]; IV, after 90 minutes): 64% | stability in human blood serum [4]: stable | metabolic stability in brain, liver and blood [5]: no significant degradation after 3 h; also recorded: could be detected even after 180 min

— patent publication US20140378408A1, “NUCLEOSIDE 5'-PHOSPHOROTHIOATE ANALOGUES AND USES THEREOF” (BAR-ILAN UNIVERSITY, an Israeli University, priority 2012, published 2014)
